Data on 3 compounds can be found in patent publication US20070161644A1, “Erastin analogs and uses thereof” (priority 2005, published 2007).

Test [1] relates to BJ-TERT/LT/ST/RAS^V12 cells. Put plainly: Cell death in the presence of a pan-caspase inhibitor. The format is cell-based, human. The conditions noted are these: 50 μM inhibitor.
Test [2] deals with BJ-TERT/LT/ST/RAS^V12 cells. Briefly: Annexin V-FITC apoptosis assay. The conditions noted are these: camptothecin-treated (1 μM); untreated 6%. The format is cell-based, human. As to the method: BJ-TERT/LT/ST/RAS^V12 cells were seeded at 1×10^6 cells per dish in 100 mm dishes and allowed to grow overnight. Cells were treated with erastin (5 or 10 μg/ml) for 6, 8 or 11 h. A camptothecin-treated (0.4 μg/ml) control was maintained, treated at the time of seeding for 20 hours. After the treatment, cells were harvested with trypsin/EDTA and washed once with fresh medium containing serum and then twice with phosphate buffered saline. Cells were resuspended in 1× binding buffer (BD Pharmingen) at a concentration of 1×10^6 cells/ml. 100 μl (1×10^5 cells) was incubated with 5 μl of Annexin V-FITC (BD Pharmingen) and propidium iodiode (BD Pharmingen) for 15 minutes in the dark at room temperature. Then 400 μl of the 1× binding buffer was added and the cells analyzed by flow cytometry (Becton-Dickinson). Data were acquired and analyzed using Cellquest software.

Test [3] relates to cleaved, active caspase 3 in BJ-TERT/LT/ST/RAS^V12 cells. Put plainly: Western blot for active caspase-3. The conditions noted are these: western blot of lysates. The format is cell-based, human. As to the method:
BJ-TERT/LT/ST/RAS^V12 cells were seeded prior to the experiment at 5×10^5 cells in 60 mm dishes. The cells were treated with 5 μg/ml erastin (9 μM) for 2, 4, 6, 8 or 10 hours. One dish was maintained for camptothecin treatment (0.4 μg/ml for 24 h) as a positive control. Cells were lysed after each time point in lysis buffer (50 mM HEPES KOH pH 7.4, […], 2 mM EDTA, 0.5% Triton X-100, 1.5 mM Na3VO4, 50 mM NaF, 10 mM sodium pyrophosphate, 10 mM sodium beta-glycerophosphate and protease inhibitor tablet (Roche)). Protein content was quantified using a Biorad protein assay reagent. Equal amounts of protein were resolved on 16% SDS-polyacrylamide gel. The electrophoresed proteins were transblotted onto a PVDF membrane, blocked with 5% milk and incubated with anti-active caspase-3 polyclonal antibody (BD Pharmingen) at 1:1500 dilution overnight at 4° C. The membrane was then incubated in anti-rabbit-HRP (Santa Cruz Biotechnology) at 1:3000 dilution for 1 hour and developed with an enhanced chemiluminescence mixture (NEN life science, Renaissance). To test for equivalent loading in each lane, blots were stripped, blocked, and probed with an anti-eIF-4E antibody (BD Transduction laboratories) at 1:1000 dilution.

Test [4] deals with BJ-TERT/LT/ST/RAS^V12 cells relative to BJ-TERT cells. Put plainly: Alamar Blue viability assay, tumorigenic versus wild type cells. The format is cell-based, human. As to the method:
Alamar Blue is reduced by mitochondrial enzyme activity in viable cells, causing both colorimetric and fluorescent changes (Nociari et al., 1998, J. Immunol. Methods 13, 157-167). Cells were seeded at a density of 6000 cells (50 μl) per well in a 384-well black, clear bottom plate using a syringe bulk dispenser (Zymark). 10 μl was removed from a two-fold serially diluted erastin plate (6× final concentration) using a 384 fixed cannula head, making the final concentration 20 μg/ml in the well with highest concentration. The plates were incubated for 24 hours. Alamar Blue (Biosource International) was added to each well by diluting 1:10 and incubated for 16 hours at 37° C. Fluorescence intensity was determined using a Packard Fusion platereader with an excitation filter centered on 535 nm and an emission filter centered on 590 nm. Average percentage inhibition at each concentration was calculated. Error bars indicate one standard deviation.
The effect of erastin or erastin B on cell viability was measured using Alamar Blue as described in Example 3 in both tumorigenic BJ-TERT/LT/ST/RAS^V12 (BJELR) cells and wild type BJ-TERT (BJEH) cells. In this example, cell viability was measured at 1, 2, and 3 days after treatment with erastin or erastin B (data for days 1 and 3 not shown). Average percentage inhibition at each concentration was measured.
The effect on cell viability of each of the two isomers of Compound 20 was measured using the Alamar Blue assay described in Example 3 in both tumorigenic BJ-TERT/LT/ST/RAS^V12 cells and wild type BJ-TERT cells. Average percentage inhibition at each concentration was measured.
The effect on cell viability of erastin or Compound 21 was measured using the Alamar Blue assay as described in Example 3 in both tumorigenic BJ-TERT/LT/ST/RAS^V12 cells and in wild type BJ-TERT cells. Average percentage inhibition at each concentration was measured. […]
For orientation: Resazurin is reduced to fluorescent resorufin, in cell work by metabolically active cells.

The test system of test [5] is VDAC isoforms, Prohibitin and Ribophorin. Put plainly: Pull-down with immobilized erastin derivatives. Particulars: pull-down from lysates, mitochondrial extract or MonoQ fractions. The format is binding, human. As to the method: Pull-down assays using immobilized erastin and cell lysates were used in an initial attempt to identify erastin binding partners inside a cell. Initial pull-down experiments were performed with HEK293, BJEH and BJELR whole cell lysates. In those experiments, a methyl-amino derivative of erastin (ERA-A6) was immobilized to Affigel 10 and incubated with lysate under standard pull-down conditions. The beads were washed and either eluted with 100 μM erastin or 0.8% N-lauroylsarcosine (sarkosyl). The eluates were subjected to mass spectrometric analysis.
Since Prohibitin and the VDAC isoforms are all mitochondrial proteins, Applicants enriched potential erastin targets by isolating mitochondria from cell lysates. The isolated mitochondrial extracts were then used in erastin pull-down experiments. In those erastin pull-down experiments with the mitochondrial extracts, Prohibitin, VDAC and Ribophorin were also identified by Western blot. […] The pull-downs were performed with 0.25 mg total protein of the mitochondrial extract. The beads were incubated with the extracts for 1.5 h at 4° C. and then washed several times. Proteins bound to the immobilized Erastin derivatives were eluted with 50 μL of 0.8% N-lauroylsarcosine solution. […]
Ribophorin and Prohibitin are rather acidic proteins with a calculated PI of 5.57 (Prohibitin) and 5.96 (Ribophorin I). […]

In the case of `COC(=O)CC(NC(=O)OC(C)(C)C)C(=O)CF` (centres unmarked) [Boc-Asp(Ome)-fluoromethyl ketone], the “block of compound-induced cell death” value in test [1] is “partially blocked cell death induced by CPT, but not by erastin”.

`CC[C@@]1(O)C(=O)OCc2c1cc1n(c2=O)Cc2cc3ccccc3nc2-1` [Camptothecin, reference compound]: in test [2], the “percentage of cells in M1 region (Annexin V staining)” value was 38%. For the same compound, the “activated caspase 3” value in test [3] is reported as “harbor activated caspase 3”. Take `CCOc1ccccc1-n1c(C(C)N2CCN(C(=O)COc3ccc(CN)cc3)CC2)nc2ccccc2c1=O` (centres unmarked) [Compound 19]: the “lethality in BJ-TERT/LT/ST/RAS^V12 (BJELR) cells compared to BJ-TERT (BJEH) cells” value in test [4] was “selective lethality”. The “binding of cellular proteins to the immobilized compound” value in test [5] was “Prohibitin and Ribophorin were identified as binding to the Erastin beads”.
